# Experimental data from the supplement of paper PMC10307832.
# Assays:
# Experiment in all cases: relative viability (nuclei count vs DMSO), 5 days (fraction); higher = more cells survive
# TPCA-1 + Tozasertib = compound: C1=CC(=CC=C1C2=CC(=C(S2)NC(=O)N)C(=O)N)F [TPCA-1] + Cc1cc(Nc2cc(N3CCN(C)CC3)nc(Sc3ccc(NC(=O)C4CC4)cc3)n2)n[nH]1 [Tozasertib] (partner 0.1 µM)
# Procedure, shortened: (§1)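 Cells from lung cancer lines were seeded into 1536-well plates and, one day later, dosed by pin tool. Treatments were either a single drug or a fixed dose of an anchor drug with five library-drug doses (not always all listed) in √10 steps. After 5 days, nuclei were stained in a one-step fixation (final 0.05% Triton X-100, 1% formaldehyde, 1 ug/ml Hoechst) and counted on 4× images, and relative viability is the treated-to-vehicle nuclei ratio, as the median of duplicate plates.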
# [1] = compound: C1/C(=C\C2=CC=CS2)/C(=O)/C(=C/C3=CC=CS3)/C1 + Nc1nc2[nH]cc(CCc3ccc(C(=O)N[C@@H](CCC(=O)O)C(=O)O)cc3)c2c(=O)[nH]1 [Pemetrexed] (partner 0.2 µM)
# Procedure, shortened: as §1
# Lestaurtinib + Olaparib = compound: C[C@]12O[C@H](C[C@]1(O)CO)n1c3ccccc3c3c4c(c5c6ccccc6n2c5c31)CNC4=O [Lestaurtinib] + O=C(c1cc(Cc2n[nH]c(=O)c3ccccc23)ccc1F)N1CCN(C(=O)C2CC2)CC1 [Olaparib] (partner 8 µM)
# Procedure, shortened: as §1
# Lestaurtinib + Alpelisib = compound: C[C@]12O[C@H](C[C@]1(O)CO)n1c3ccccc3c3c4c(c5c6ccccc6n2c5c31)CNC4=O [Lestaurtinib] + Cc1nc(NC(=O)N2CCC[C@H]2C(N)=O)sc1-c1ccnc(C(C)(C)C(F)(F)F)c1 [Alpelisib] (partner 2 µM)
# Procedure, shortened: as §1
cell line,measurement,setting,value
UMC-11,relative viability,TPCA-1 + Tozasertib; first compound 0.04 µM,0.208
same,relative viability,TPCA-1 + Tozasertib; first compound 0.1265 µM,0.207
same,relative viability,TPCA-1 + Tozasertib; first compound 0.4 µM,0.216
same,relative viability,TPCA-1 + Tozasertib; first compound 1.265 µM,0.178
same,relative viability,TPCA-1 + Tozasertib; first compound 4 µM,0.187
same,relative viability,[1]; first compound 0.2 µM,0.816
same,relative viability,[1]; first compound 0.6325 µM,0.817
same,relative viability,[1]; first compound 2 µM,0.789
same,relative viability,[1]; first compound 6.325 µM,0.563
same,relative viability,[1]; first compound 20 µM,0.824
same,relative viability,Lestaurtinib + Olaparib; first compound 0.005 µM,0.402
same,relative viability,Lestaurtinib + Olaparib; first compound 0.01581 µM,0.466
same,relative viability,Lestaurtinib + Olaparib; first compound 0.05 µM,0.384
same,relative viability,Lestaurtinib + Olaparib; first compound 0.1581 µM,0.273
same,relative viability,Lestaurtinib + Olaparib; first compound 0.5 µM,0.171
same,relative viability,Lestaurtinib + Alpelisib; first compound 0.005 µM,0.967
same,relative viability,Lestaurtinib + Alpelisib; first compound 0.01581 µM,0.968
same,relative viability,Lestaurtinib + Alpelisib; first compound 0.05 µM,0.471
same,relative viability,Lestaurtinib + Alpelisib; first compound 0.1581 µM,0.297
same,relative viability,Lestaurtinib + Alpelisib; first compound 0.5 µM,0.156
